Data reported in US7897568B2, “Compositions for treatment of cancer” (priority 2006, dated 2011).
Where a SMILES comes first, the peptide text is derived from it. Where no end group is shown, it is not given here.

Columns and labels:
GST = GST (Schistosoma japonicum, UniProt P08515); test: Surface plasmon resonance control with GST as analyte; type: binding; settings: SPR, GST as the analyte
Method: Kinetics of the SNCG-ANK interaction were determined. […] Sensograms were deconvoluted globally, using a simultaneous fit for both association (ka, M^−1s^−1) and dissociation (kd, s^−1).
The binding interaction between the ANK peptide and GST-SNCG was examined in real time using a BIACORE 3000 biosensor system (Biacore Inc., NJ). Because of the relatively large amount required in this experiment, GST-SNCG, which expresses at least 2 times better than SNCG, was used. […] The changes in the refractive index at the sensor chip surface with respect to time are scaled in resonance units (RU). For proteins, every 1000 RU corresponds to a surface mass change of ˜1 ng/mm^2. All experiments were performed at 25° C. using research grade carboxymethylated dextran matrix (CM5) sensor chips (Biacore Inc.). […] Prior to all analyses the GST-SNCG and ANK peptide preparations were dialyzed against the running buffer to minimize bulk effects. Blank analyte injections (running buffer only) were subtracted from the specific binding isotherms to further minimize instrument noise.

SNCG = SNCG (Homo sapiens, UniProt O76070); test: Co-localization of EGFP-ANK with SNCG by confocal microscopy; type: cell-based; parameters: expressed in transfected cells; host or cells: MCF7-SNCG (MCF7 stably expressing SNCG); settings: green fluorescent signals in transfected cells
Text: FIGS. 5A through 5D show co-localization, co-immunoprecipitation (co-IP) and GST pull down experiments, using an enhance green fluorescent protein (EGFP)-ANK fusion protein, which confirm that SNCG associates with the ANK peptide in vivo. FIG. 5A is a western blot depicting detection of EGFP-ANK expression in COS7 cells. Lanes 2 and 3 were samples transfected with different clones, cl-4 and cl-8, respectively, of pEGFP-ANK plasmid. In FIG. 5B, MCF7-SNCG cells were transfected with pEGFP-ANK, fixed on a cover slip, permeabilized and probed with anti-SNCG and anti-GFP antibodies to observe co-localization. Fluorescent cells were visualized using an ×100 objective (oil) on an inverted confocal microscope (Leica). FIGS. 5C and 5D are western blots showing association of SNCG and ANK peptide as evidenced by co-IP of SNCG with EGFP-ANK in MCF7-SNCG and MCF7-neo cells. In these experiments, MCF7-SNCG and MCF7-neo cells were transfected with pEGFP-ANK or pEGFP plasmids. […]
To further examine the utility of the ANK peptide as a therapeutic tool against SNCG-caused drug resistance, this peptide was expressed in breast cancer cells. ANK peptide nucleotide sequences were cloned into pEGFP-C2 vector (pEGFP-ANK), and ANK peptide was expressed as a fusion protein with its amino-terminal linked to EGFP protein. […]

Sequence of GST (P08515 whole entry): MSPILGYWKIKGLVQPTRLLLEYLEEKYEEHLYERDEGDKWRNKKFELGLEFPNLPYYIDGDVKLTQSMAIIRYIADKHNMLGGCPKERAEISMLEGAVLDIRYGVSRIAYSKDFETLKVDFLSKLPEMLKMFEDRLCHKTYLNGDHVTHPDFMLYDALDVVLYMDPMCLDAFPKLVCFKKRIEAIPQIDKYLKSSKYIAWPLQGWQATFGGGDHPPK
Sequence of SNCG (O76070 whole entry, the tested form may be a part): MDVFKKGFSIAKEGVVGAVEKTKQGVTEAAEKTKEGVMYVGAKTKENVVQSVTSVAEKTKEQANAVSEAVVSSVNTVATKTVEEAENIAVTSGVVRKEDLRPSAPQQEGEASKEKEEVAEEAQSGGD

Molecule | binding of GST analyte to immobilized ANK peptide (GST) | intracellular localization relative to SNCG (SNCG)
CC[C@H](C)[C@H](NC(=O)[C@H](CS)NC(=O)CNC(=O)[C@H](CC(C)C)NC(=O)[C@H](Cc1c[nH]cn1)NC(=O)CNC(=O)[C@H](Cc1c[nH]cn1)NC(=O)[C@H](CCC(N)=O)NC(=O)[C@H](CO)NC(=O)[C@H](C)NC(=O)[C@@H](NC(=O)[C@H](Cc1c[nH]cn1)NC(=O)[C@H](CC(C)C)NC(=O)[C@H](C)NC(=O)[C@H](CO)NC(=O)[C@H](CC(N)=O)NC(=O)CNC(=O)[C@H](CCCCN)NC(C)=O)C(C)C)C(=O)N[C@@H](CCC(N)=O)C(=O)N[C@H](C(=O)N[C@@H](CC(C)C)C(=O)N[C@H](C(=O)N[C@@H](CCCNC(=N)N)C(=O)N[C@@H](Cc1ccc(O)cc1)C(=O)NCC(=O)N[C@@H](C)C(=O)N[C@@H](CC(N)=O)C(=O)N[C@H](C(=O)N[C@H](C(=O)N[C@@H](CCSC)C(=O)N[C@@H](CCC(N)=O)C(=O)N[C@@H](CC(N)=O)C(=O)N[C@@H](Cc1c[nH]cn1)C(=O)NCC(N)=O)[C@@H](C)O)C(C)C)C(C)C)[C@@H](C)O [ANK peptide] (Ac-KGNSALHVASQHGHLGCIQTLVRYGANVTMQNHG-NH2) | No binding | –
EGFP-ANK: ANK peptide expressed as a fusion protein with its amino-terminal linked to EGFP protein, approximately 37 kDa ({EGFP}-KGNSALHVASQHGHLGCIQTLVRYGANVTMQNHG) | – | co-localized with SNCG in the cytoplasm
